# Test results published in the METLIN SMRT retention time set (Domingo-Almenara et al. 2019).
# Assay: gradient 5% acetonitrile 3 min, to 50% in 2 min, to 85% in 15 min, held 3 min, 100 µL/min
# Settings: column: Zorbax Extend-C18 2.1 x 50 mm; eluents: water / acetonitrile, 0.1% formic acid
# Procedure, shortened: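 Pure standards were analyzed in mixtures of ~100 molecules using HPLC coupled to a quadrupole time-of-flight mass spectrometer, in both positive and negative ionization mode. Separation used a Zorbax Extend-C18 column (2.1 × 50 mm, 1.8 μm) at 100 μL/min, with water and acetonitrile each containing 0.1% formic acid. Dead and dwell volumes were 40 μL and 900 μL, and data were collected over 3 months. Retention time was read from computationally picked adduct peaks, each inspected manually.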
row,Compound,RP-LC retention time [s]
1,CCS(=O)(=O)N1CC(n2cc(C(=O)NCC3CC3)nn2)C1,664
2,Cc1ccc(OCc2nc(C3CCNC3)no2)cc1 (centres undefined),641
3,CCOc1ccccc1C(=O)NC1(c2nc(-c3cccnc3)no2)CCCCC1,1050
4,O=c1n(CC2CC2)nc2n1CCN(Cc1ccncc1)C2,511
5,NC(=O)C1CCN(C(=O)CSc2nc3ccccc3s2)CC1,627
6,COC(=O)c1cnc2nc(C)ccc2c1Nc1ccc(Cl)c(F)c1,713
7,Cn1nc(-c2cccc(NC(=O)c3cccs3)c2)ccc1=O,678
8,COCCn1ccc2nc(C)c(C(=O)NCc3ccc(C)o3)cc2c1=O,680
9,O=c1n(Cc2cccc(C(F)(F)F)c2)nc2ccc(-c3ccccc3)nn12,887
10,CN1CCCn2nc(C3CCN(C(=O)CC(C)(C)C)CC3)cc2C1=O,654
11,C=CCN1C[C@H](C)N([C@H](c2ccccc2)c2ccc(C(=O)N(CC)CC)cc2)C[C@H]1C,702
12,CCCCOc1ccc(-c2cc3c(N4CCN(CC)CC4)nccn3n2)cc1,775
13,CN(C)c1cnc(-n2cc(NC(=O)CCCc3ccccc3)cn2)nc1,724
14,Cc1ccc(NS(=O)(=O)c2cc(-c3[nH]ncc3C(=O)N3CCCC3)oc2C)cc1F,741
15,Cc1ccc(NC(=O)C2CCN(c3nc(C4CCC4)nc4csc(C)c34)CC2)c(C)c1,804
16,COc1ccc(C2C(C(=O)N3CCN(C)CC3)c3cc(OC)c(OC)cc3C(=O)N2C)cc1 (centres undefined),640
17,COCCC(=O)NCCC1CCN(C(=O)Nc2cc(F)ccc2F)CC1,675
18,COc1cc(OC)cc(-c2nnc(Cc3nc(-c4cccc(F)c4)no3)o2)c1,907
19,CC(C)c1ccc(CNC(=O)Cc2nnc(-c3ccccn3)o2)cc1,578
20,Cn1c(N2CCCN(C(=O)c3ccc(Br)cc3)CC2)cc(=O)n(C)c1=O,664
21,CC(C)CN1CCN(Cc2nc(Cn3ccn4nc(-c5ccccc5)cc4c3=O)no2)CC1,665
22,O=C(c1ccoc1)N1CCN(c2cc(-c3ccccc3)[nH]n2)CC1,698
23,CN(C)CCCNC(=O)C1CCN(c2nc3ccc(-c4ccccc4F)nc3s2)CC1,649

row,Compound,RP-LC retention time [s]
1,COc1ccc(C2(C(=O)N3CCN(S(=O)(=O)c4c(C)nn(C(C)C)c4C)CC3)CC2)cc1,889
2,Cc1nnc(-c2ccc3ccn(CC(=O)NCc4ccccc4Cl)c3c2)o1,779
3,O=C1[C@H]2CNC[C@H]2C(=O)N1CCc1ccccc1,604
4,COc1ccc(-c2nc3ncccn3c2Nc2ccc(C)cc2)cc1,744
5,Cc1cccc(C2CC(=O)c3c(C)nc(N4CCN(CCO)CC4)nc3C2)c1 (centres undefined),665
6,Cc1cc(=O)n(CC(=O)Nc2ccc(Cl)cc2)c(-c2ccc(F)cc2)n1,1120
7,Cc1ccc(-c2noc(CSc3nc4cc5c(cc4c(=O)n3CC3CCCO3)OCO5)n2)cc1 (centres undefined),1160
8,O=C(CN1C(=O)c2ccccc2C1=O)NCC1CCS(=O)(=O)C1 (centres undefined),586
9,O=C(NCc1ccco1)C1CCN(c2nc3ccc(-c4cccnc4)nc3s2)CC1,644
10,CC(C)NC(=O)c1ccc2cnn(C)c2c1,667
11,O=C(Nc1nc(-c2cccs2)cs1)c1ccc2ncsc2c1,874
12,COc1cc(C(=O)Nc2nnc(SCc3nnc(-c4ccccc4C)o3)s2)cc(OC)c1OC,942
13,O=c1c(=O)n(Cc2nc(-c3cccc(F)c3)no2)ccn1Cc1ccc(Cl)cc1,930
14,O=S(=O)(Cc1ccccc1)N1CCC(c2noc(COCC3CC3)n2)CC1,941
15,Cc1ccc2c(c1)N(Cc1ccccc1F)N=C(C(=O)N1CCCC1)S2(=O)=O,885
16,O=C(NCc1cccs1)C1CCN(Cc2cc3ccccc3n2Cc2ccc(F)cc2)CC1,783
17,CC(C)CC(=O)Nc1ccc(-n2cnc(C(=O)N3CCc4ccccc4C3)c2)nc1,817
18,Cc1ccc(-n2ccc(=O)c(-c3nc(-c4cccc(Br)c4)no3)n2)cc1,1030
19,CCOC(=O)c1ccccc1NC(=O)CSc1ccc(-c2ccco2)nn1,524
20,COc1ccc(N2CC(c3nc(-c4ccc(Br)cc4)no3)CC2=O)cc1 (centres undefined),1050
21,O=C(CCC1CCN(c2cc(NC3CC3)ncn2)CC1)N1CCN(c2ccccn2)CC1,536
22,CCCn1c(=O)c2cc(C(=O)Nc3ccccc3)nn2c2ccccc21,1030
23,COc1ccc(C2(C(=O)N3CCC4(CC3)CN(C(C)C)C4c3ccccc3)CC2)cc1 (centres undefined),684

row,Compound,RP-LC retention time [s]
1,COc1ccc(NC(=O)CN2CCc3[nH]c4c(C)c(C)ccc4c(=O)c3C2)c(OC)c1,626
2,COc1ccc(OC)c(NC(=O)C2CCCN(c3ncnc4c3nc3n4CCCCC3)C2)c1 (centres undefined),815
3,O=C(CCn1cnc2cc(-c3noc(-c4cncc(Br)c4)n3)ccc21)N1CCCCC1,782
4,COC(=O)CCc1sc(Nc2ccc(OC)cc2)nc1-c1ccc(OC)cc1,909
5,COc1ccc(-c2cc(C(=O)Nc3ccc(Cl)cc3)nn2C2CCS(=O)(=O)C2)cc1 (centres undefined),1020
6,CCc1ccc(NC(=O)C2CCCN(c3nc4ccccc4nc3C(F)(F)F)C2)cc1 (centres undefined),1230
7,CCN1CCN(C(=O)C2Cn3cccc3C(=O)N2CC(C)C)CC1 (centres undefined),573
8,COc1ccccc1N1CCNCC1,627
9,CCc1nccn1Cc1nc(-c2ccc(Cl)cc2)no1,670
10,CCNc1nc(C)cc(N2CCN(C(=O)Nc3cc(OC)ccc3OC)CC2)n1,626
11,CC(C)c1cc(N2CCN(c3ccccn3)CC2)n2c(nc3ccccc32)c1C#N,695
12,CC(=O)Nc1ccc2nc(NC(=O)CCOc3ccccc3)sc2c1,708
13,CCOc1ccc(-c2cc3c(=O)n(Cc4nc(-c5ccc(OC)c(OC)c5)no4)ncn3n2)cc1,1060
14,CCCCNC(=O)C1CCCN(c2ccc(-c3ccc(C)c(C)c3)nn2)C1 (centres undefined),735
15,Cc1nccn1CC(=O)N1CCCC(OCc2nc(C3CC3)no2)C1 (centres undefined),577
16,CN(C1CCc2nn(Cc3ccccc3)c(=O)n2CC1)S(C)(=O)=O (centres undefined),666
17,Cc1cc(=O)n2nc(N3CCCC(C(=O)N4CCC(Cc5ccccc5)CC4)C3)sc2n1 (centres undefined),726
18,CN1CCCc2cc(C(CNC(=O)C(=O)NCc3ccc4c(c3)OCO4)N3CCCC3)ccc21 (centres undefined),709
19,Cc1ccc(C)c(NC(=O)N2CCC3(CC2)NC(=O)c2ccccc2O3)c1,766
20,Cn1c(=O)c(NCc2cccc(C(F)(F)F)c2)nc2ccncc21,658
21,NCCC1CCN(C(=O)Nc2ccccc2)CC1,577
22,COc1cc(C)nc(-n2nc(C)cc2OC)n1,711
23,COc1ccc(CNC(=O)C2(C)CCN(S(=O)(=O)c3c(C)cc(C)cc3C)CC2)cc1,912

row,Compound,RP-LC retention time [s]
1,Fc1ccc(CN2CCCCC2c2nncn2CC2CC2)cc1F (centres undefined),619
2,COC(=O)c1cc(S(=O)(=O)N2CCCC2C(=O)Nc2cccc3c2CCCC3)cn1C (centres undefined),1020
3,Cc1nc2ccn(Cc3ccco3)c(=O)c2cc1C(=O)N1CCN(C)CC1,644
4,CCCNC(=O)C1CCN(c2ccc(SCC(=O)Nc3ccc(C)c(C)c3)nn2)CC1,685
5,Cc1ccc2nc(NC(=O)CSc3nc4c(c(=O)n3-c3ccccc3)SCC4)sc2c1,922
6,CCC1Oc2ccc(S(=O)(=O)N3CCC(C(=O)NC4CCC(C)CC4)CC3)cc2NC1=O (centres undefined),904
7,O=C(NCC1(O)CCCC1)C1CC(=O)N(c2ccccc2)C1 (centres undefined),624
8,Cc1ccc(NC(=O)N(CCc2cccs2)Cc2cccnc2)cc1C,649
9,CCCN1C(=O)c2c(C(=O)NCCc3ccccc3C)ncn2CC1(C)C(=O)NCCC(C)C (centres undefined),900
10,CN(C)C(=O)c1cn(C2CN(S(=O)(=O)c3ccc4c(c3)CCC4)C2)nn1,774
11,COCCn1cc(CCNC(=O)Nc2cccc(Br)c2)c2cccnc21,783
12,COc1ccccc1N1CCN(Cc2nc(-c3ccc(N4CCCC(C)C4)nc3)no2)CC1 (centres undefined),848
13,COc1cccc(CNC(=O)Cn2c(=O)c3cc(C4CC4)nn3c3ncccc32)c1,742
14,CCOc1ccc(NC(=O)N2CCc3cn(CCOC)c4cccc(c34)C2)cc1,898
15,Cc1csc(-c2cc(S(=O)(=O)Nc3ccc(F)cc3F)cn2CC(=O)N2CCCC2)n1,880
16,O=C(NCc1cccs1)C1CCN(Cc2cc3ccccc3n2Cc2cccc(F)c2)CC1,779
17,Cc1ccc(N2CCC(NC(=O)c3ccc(F)cc3)C2=O)cc1C (centres undefined),828
18,CN(C(=O)c1ccc(-c2cccc([N+](=O)[O-])c2)o1)C1CCS(=O)(=O)C1 (centres undefined),726
19,CC(C)n1cnc2ccc(-c3noc(-c4cccc(C#N)c4)n3)cc21,761
20,COc1ccc(Cl)cc1S(=O)(=O)N1CCC(C(=O)NCc2cccnc2)CC1,625
